Results as given in ChEMBL document CHEMBL3045862, “PRE-CLINICAL AND CLINICAL PHARMACOKINETICS OF THE DIASTEREOMERS OF ARTEETHER, A POTENT ANTIMALARIAL” (Med Chem Res, 2004).

How the values were obtained:
[1] = Elimination half life in Rattus norvegicus Sprague-Dawley (rat) at 30 mg/kg, administered intramuscularly; format: ADME, organism-based; set-up: dose 30 mg/kg, route intramuscular; conditions: in vivo, im, read-out: beta t1/2 (converted)
[2] = AUC (0 to infinity) in Macaca mulatta (Rhesus monkey) at 7.5 mg/kg, administered intramuscularly; format: ADME, organism-based, Plasma; set-up: time infinity, dose 7.5 mg/kg, route intramuscular; conditions: plasma, im
[3] = Cmax in Rattus norvegicus Sprague-Dawley (rat) at 30 mg/kg, administered intramuscularly; format: ADME, organism-based; set-up: dose 30 mg/kg, route intramuscular; conditions: in vivo, im
Rattus norvegicus [4] = assay: Dose normalized AUC in Rattus norvegicus Sprague-Dawley (rat) at 17.5 mg/kg, po; format: ADME, organism-based; set-up: dose 17.5 mg/kg, route oral; conditions: in vivo
Rattus norvegicus [5] = assay: Dose normalized AUC in Rattus norvegicus Sprague-Dawley (rat) at 30 mg/kg, administered intramuscularly; format: ADME, organism-based; set-up: dose 30 mg/kg, route intramuscular; conditions: in vivo, im
[6] = AUC (0 to infinity) in Macaca mulatta (Rhesus monkey) at 50 mg/kg, po; format: ADME, organism-based, Plasma; set-up: time infinity, dose 50 mg/kg, route oral; conditions: plasma
[7] = Tmax in Rattus norvegicus Sprague-Dawley (rat) at 30 mg/kg, po; format: ADME, organism-based; set-up: dose 30 mg/kg, route oral; conditions: in vivo
[8] = Cmax in Rattus norvegicus Sprague-Dawley (rat) at 17.5 mg/kg, po; format: ADME, organism-based; set-up: dose 17.5 mg/kg, route oral; conditions: in vivo
Rhesus monkey [9] = assay: Dose normalized AUC in Macaca mulatta (Rhesus monkey) at 4 mg/kg, iv; format: ADME, organism-based; set-up: dose 4 mg/kg, route intravenous; conditions: in vivo
Rattus norvegicus [10] = assay: Volume of distribution in Rattus norvegicus Sprague-Dawley (rat) at 30 mg/kg, po; format: ADME, organism-based; set-up: dose 30 mg/kg, route oral; conditions: in vivo
[11] = AUC (0 to infinity) in Rattus norvegicus Sprague-Dawley (rat) at 17.5 mg/kg, po; format: ADME, organism-based, Plasma; set-up: time infinity, dose 17.5 mg/kg, route oral; conditions: Sprague-Dawley, plasma
[12] = Mean residence time in Rattus norvegicus Sprague-Dawley (rat) at 17.5 mg/kg, administered intramuscularly; format: ADME, organism-based; set-up: dose 17.5 mg/kg, route intramuscular; conditions: in vivo, im
[13] = AUC (0 to infinity) in Homo sapiens (human) at 150 mg; format: ADME, organism-based; set-up: dose 150 mg, time infinity; conditions: plasma
[14] = Elimination half life in Rattus norvegicus Sprague-Dawley (rat) at 2 mg/kg, iv; format: ADME, organism-based; set-up: dose 2 mg/kg, route intravenous; conditions: in vivo, read-out: beta t1/2 (converted)
Rattus norvegicus [15] = assay: Volume of distribution in Rattus norvegicus Sprague-Dawley (rat) at 17.5 mg/kg, administered intramuscularly; format: ADME, organism-based; set-up: dose 17.5 mg/kg, route intramuscular; conditions: in vivo, im
Rhesus monkey [16] = assay: Volume of distribution in Macaca mulatta (Rhesus monkey) at 7.5 mg/kg, administered intramuscularly; format: ADME, organism-based; set-up: dose 7.5 mg/kg, route intramuscular; conditions: in vivo, im
[17] = Elimination half life in Rattus norvegicus Sprague-Dawley (rat) at 9 mg/kg, po; format: ADME, organism-based; set-up: dose 9 mg/kg, route oral; conditions: in vivo, read-out: beta t1/2 (converted)
[18] = Clearance in Rattus norvegicus Sprague-Dawley (rat) at 30 mg/kg, administered intramuscularly; format: ADME, organism-based; set-up: dose 30 mg/kg, route intramuscular; conditions: Sprague-Dawley, in vivo, im
[19] = Cmax in Rattus norvegicus Sprague-Dawley (rat) at 30 mg/kg, po; format: ADME, organism-based; set-up: dose 30 mg/kg, route oral; conditions: in vivo
[20] = Elimination half life in Macaca mulatta (Rhesus monkey) at 7.5 mg/kg, administered intramuscularly; format: ADME, organism-based; set-up: dose 7.5 mg/kg, route intramuscular; conditions: in vivo, im, read-out: beta t1/2 (converted)
[21] = Clearance in Macaca mulatta (Rhesus monkey) at 7.5 mg/kg, administered intramuscularly; format: ADME, organism-based; set-up: dose 7.5 mg/kg, route intramuscular; conditions: in vivo, im
[22] = AUC (0 to infinity) in Rattus norvegicus Sprague-Dawley (rat) at 30 mg/kg, administered intramuscularly; format: ADME, organism-based, Plasma; set-up: time infinity, dose 30 mg/kg, route intramuscular; conditions: Sprague-Dawley, plasma, im
[23] = Tmax in Macaca mulatta (Rhesus monkey) at 50 mg/kg, po; format: ADME, organism-based; set-up: dose 50 mg/kg, route oral; conditions: in vivo
[24] = Clearance in Rattus norvegicus Sprague-Dawley (rat) at 9 mg/kg, po; format: ADME, organism-based; set-up: dose 9 mg/kg, route oral; conditions: Sprague-Dawley, in vivo
Rattus norvegicus [25] = assay: Dose normalized AUC in Rattus norvegicus Sprague-Dawley (rat) at 17.5 mg/kg, administered intramuscularly; format: ADME, organism-based; set-up: dose 17.5 mg/kg, route intramuscular; conditions: in vivo, im
[26] = Mean residence time in Homo sapiens (human) at 150 mg; format: ADME, organism-based; conditions: in vivo
[27] = Tmax in Rattus norvegicus Sprague-Dawley (rat) at 17.5 mg/kg, po; format: ADME, organism-based; set-up: dose 17.5 mg/kg, route oral; conditions: in vivo
[28] = Clearance in Rattus norvegicus Sprague-Dawley (rat) at 17.5 mg/kg, administered intramuscularly; format: ADME, organism-based; set-up: dose 17.5 mg/kg, route intramuscular; conditions: Sprague-Dawley, in vivo, im
[29] = Elimination half life in Homo sapiens (human) at 150 mg; format: ADME, organism-based; conditions: in vivo, read-out: beta t1/2 (converted)
[30] = Elimination half life in Macaca mulatta (Rhesus monkey) at 4 mg/kg, iv; format: ADME, organism-based; set-up: dose 4 mg/kg, route intravenous; conditions: in vivo, read-out: beta t1/2 (converted)
[31] = Mean residence time in Macaca mulatta (Rhesus monkey) at 4 mg/kg, iv; format: ADME, organism-based; set-up: dose 4 mg/kg, route intravenous; conditions: in vivo
[32] = Cmax in Homo sapiens (human) at 150 mg; format: ADME, organism-based; set-up: dose 150 mg; conditions: in vivo
[33] = Clearance in Rattus norvegicus Sprague-Dawley (rat) at 9 mg/kg, administered intramuscularly; format: ADME, organism-based; set-up: dose 9 mg/kg, route intramuscular; conditions: Sprague-Dawley, in vivo, im
[34] = Clearance in Rattus norvegicus Sprague-Dawley (rat) at 2 mg/kg, iv; format: ADME, organism-based; set-up: dose 2 mg/kg, route intravenous; conditions: Sprague-Dawley, in vivo
[35] = AUC (0 to infinity) in Rattus norvegicus Sprague-Dawley (rat) at 2 mg/kg, iv; format: ADME, organism-based, Plasma; set-up: time infinity, dose 2 mg/kg, route intravenous; conditions: Sprague-Dawley, plasma
[36] = Tmax in Rattus norvegicus Sprague-Dawley (rat) at 17.5 mg/kg, administered intramuscularly; format: ADME, organism-based; set-up: dose 17.5 mg/kg, route intramuscular; conditions: in vivo, im
Rattus norvegicus [37] = assay: Volume of distribution in Rattus norvegicus Sprague-Dawley (rat) at 9 mg/kg, administered intramuscularly; format: ADME, organism-based; set-up: dose 9 mg/kg, route intramuscular; conditions: in vivo, im
[38] = Elimination half life in Rattus norvegicus Sprague-Dawley (rat) at 30 mg/kg, po; format: ADME, organism-based; set-up: dose 30 mg/kg, route oral; conditions: in vivo, read-out: beta t1/2 (converted)
[39] = Mean residence time in Rattus norvegicus Sprague-Dawley (rat) at 9 mg/kg, po; format: ADME, organism-based; set-up: dose 9 mg/kg, route oral; conditions: in vivo
Rattus norvegicus [40] = assay: Volume of distribution in Rattus norvegicus Sprague-Dawley (rat) at 9 mg/kg, po; format: ADME, organism-based; set-up: dose 9 mg/kg, route oral; conditions: in vivo
[41] = Clearance in Rattus norvegicus Sprague-Dawley (rat) at 17.5 mg/kg, po; format: ADME, organism-based; set-up: dose 17.5 mg/kg, route oral; conditions: Sprague-Dawley, in vivo

CCO[C@H]1O[C@@H]2O[C@@]3(C)CC[C@H]4[C@H](C)CC[C@@H]([C@H]1C)[C@@]24OO3 [ARTEMOTIL]
half-life [1]: 25.2 h | AUC(0-inf) [2]: 746 ng·h/mL | Cmax [3]: 27.8 ng/mL | AUC/dose (Rattus norvegicus [4]): 2.8 ng·h/mL | AUC/dose (Rattus norvegicus [5]): 19.4 ng·h/mL | AUC(0-inf) [6]: 8.5 ng·h/mL | Tmax [7]: 5 min | Cmax [8]: 8.1 ng/mL | AUC/dose (Rhesus monkey [9]): 435.8 ng·h/mL | Vd (Rattus norvegicus [10]): 3024.2 L/kg | AUC(0-inf) [11]: 33.9 ng·h/mL | MRT [12]: 33.2 h | AUC(0-inf) [13]: 2330 ng·h/mL | half-life [14]: 0.85 h | Vd (Rattus norvegicus [15]): 198.7 L/kg | Vd (Rhesus monkey [16]): 197.2 L/kg | half-life [17]: 4.2 h | CL/F [18]: 762 mL/min/kg | Cmax [19]: 8.1 ng/mL | half-life [20]: 19.1 h | CL/F [21]: 118 mL/min/kg | AUC(0-inf) [22]: 407 ng·h/mL | Tmax [23]: 0.583 h | CL/F [24]: 2120 mL/min/kg | AUC/dose (Rattus norvegicus [25]): 197.1 ng·h/mL | MRT [26]: 47.4 h | Tmax [27]: 5 min | CL/F [28]: 83.3 mL/min/kg | half-life [29]: 30.2 h | half-life [30]: 2.6 h | MRT [31]: 2.8 h | Cmax [32]: 49.8 ng/mL | CL/F [33]: 86.7 mL/min/kg | clearance [34]: 127 mL/min/kg | AUC(0-inf) [35]: 185 ng·h/mL | Tmax [36]: 0.5 h | Vd (Rattus norvegicus [37]): 213.2 L/kg | half-life [38]: 2.8 h | MRT [39]: 6.7 h | Vd (Rattus norvegicus [40]): 770.8 L/kg | CL/F [41]: 5060 mL/min/kg
